The test system of the experiment is CD2F1 mice, L1210 leukemia ip, survival T/C. Nature of the experiment: NCI In Vivo Anticancer Drug Screen. Data for tumor model L1210 Leukemia (intraperitoneal) in CD2F1 (CDF1) mice. The settings on record: endpoint: mean survival time, higher = longer survival. In short, it runs like this: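 Mice carrying a transplanted tumor received test compound or vehicle alone. The value is the measurement in the treated group divided by that in the vehicle-treated control group.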

Setting [1] is: dose: 100.0 mg/kg/injection, schedule: Q01DX001 (ip), vehicle: saline.
The mark [2] stands for this setting: dose: 200.0 mg/kg/injection, schedule: Q01DX001 (ip), vehicle: saline.
Setting [3] is: dose: 400.0 mg/kg/injection, schedule: Q01DX001 (ip), vehicle: saline.
Setting [4] is: dose: 100.0 mg/kg/injection, schedule: Q01DX009 (ip), vehicle: saline with Tween-80.
Where [5] appears, read: dose: 100.0 mg/kg/injection, schedule: Q04DX003 (ip), vehicle: saline with Tween-80.
[6] abbreviates: dose: 200.0 mg/kg/injection, schedule: Q01DX009 (ip), vehicle: saline with Tween-80.
[7] abbreviates: dose: 200.0 mg/kg/injection, schedule: Q04DX003 (ip), vehicle: saline with Tween-80.
Setting [8] is: dose: 400.0 mg/kg/injection, schedule: Q01DX009 (ip), vehicle: saline with Tween-80.
[9] abbreviates: dose: 400.0 mg/kg/injection, schedule: Q04DX003 (ip), vehicle: saline with Tween-80.

The record followed here is PubChem BioAssay AID256 (DTP/NCI, 2004).

“And” between values parts separate entries of the source, which are not always exact repeats. Equal values may be shown once. Inconclusive results and toxic doses are left out.

Turning to `C1CC[N-]CC1.C1CC[N-]CC1.CC(=O)CC(C)=O.CC(=O)CC(C)=O.[Ni+2]`, the T/C (dose: 10.0 mg/kg/injection, schedule: Q04DX003 (ip), vehicle: saline) was 94 % of control; the T/C (dose: 20.0 mg/kg/injection, schedule: Q04DX003 (ip), vehicle: saline) is 96 % of control; the T/C (dose: 40.0 mg/kg/injection, schedule: Q04DX003 (ip), vehicle: saline) was 104 % of control.

Turning to `OCC(O)C1OC(OCc2ccccc2)C(O)C(O)C1O` (stereo unspecified), the T/C under setting [1] was 101 % of control, the T/C under setting [2] was 98 % of control and the T/C under setting [3] is 98 % of control.

For `CC1OC(OCC2OC(Oc3c(-c4ccc(O)c(O)c4)oc4cc(O)cc(O)c4c3=O)C(O)C(O)C2O)C(O)C(O)C1O` (stereo unspecified), the T/C was 100 % of control under setting [1], 102 % of control under setting [2] and 100 % of control under setting [3].

In the case of `OCC1OC(n2cnc3c(NCCc4ccccc4)ncnc32)C(O)C1O` (stereo unspecified), the T/C (dose: 12.5 mg/kg/injection, schedule: Q01DX005 (ip), vehicle: other) is 101 % of control; the T/C (dose: 25.0 mg/kg/injection, schedule: Q01DX005 (ip), vehicle: other) is 110 % of control; the T/C (dose: 50.0 mg/kg/injection, schedule: Q01DX005 (ip), vehicle: other) is 92 % of control.

In the case of `CCCC(C)N` (stereo unspecified), the T/C is, setting by setting: under setting [1], 98 % of control; under setting [2], 98 % of control; under setting [3], 94 % of control.

`c1ccc2c(c1)Cc1nc3ccccc3nc1-2`: the T/C was 94 % of control under setting [4]; 105 % of control under setting [5]; 94 % of control under setting [6]; 103 % of control under setting [7]; 97 % of control under setting [8]; 97 % of control under setting [9].

For `Nc1ccc(C(=O)Nc2ccc(S(=O)(=O)F)cc2)cc1`, the T/C was 100 % of control under setting [1], 96 % of control under setting [2] and 102 % of control under setting [3].

Consider `Nc1ccc(-c2ccc(N)c([N+](=O)[O-])c2)cc1[N+](=O)[O-]`, for which the T/C was 98 % of control under setting [4]; 86 % of control under setting [5]; 94 % of control under setting [6]; 89 % of control under setting [7]; 95 % of control under setting [8]; 86 % of control under setting [9].

In the case of `COC[C@H]1OC(=O)c2coc3c2[C@@]1(C)C1=C(C3=O)[C@@H]2CCC(=O)[C@@]2(C)C[C@H]1OC(C)=O`, the T/C was 102 % of control (dose: 0.16 mg/kg/injection, schedule: Q01DX009 (ip), vehicle: saline); 98 % of control (dose: 0.31 mg/kg/injection, schedule: Q01DX009 (ip), vehicle: saline); 102 % of control (dose: 0.63 mg/kg/injection, schedule: Q01DX009 (ip), vehicle: saline); 86 % of control (dose: 1.25 mg/kg/injection, schedule: Q01DX009 (ip), vehicle: saline with Tween-80); 110 % of control (dose: 1.25 mg/kg/injection, schedule: Q01DX009 (ip), vehicle: saline).

In the case of `CC(=O)Oc1cc2c(=O)oc3cc(OC(C)=O)c(=O)oc3c2c(OC(C)=O)c1OC(C)=O`, the T/C is 98 % of control under setting [1], 101 % of control under setting [2] and 110 % of control under setting [3].

As to `O=C(O)C1=C(C(=O)O)C2C3CC4C(C13)C42`, the T/C runs as follows: under setting [5], 101 % of control; under setting [7], 100 % of control; under setting [9], 88 % of control.

For `CC(C)=NNc1cc(N)nc2c1ncn2C1OC(CO)C(O)C1O` (stereo unspecified), the T/C reads like this: (dose: 50.0 mg/kg/injection, schedule: Q01DX005 (ip), vehicle: water) 90 % of control; (dose: 100.0 mg/kg/injection, schedule: Q01DX005 (ip), vehicle: water) 94 % of control; (dose: 200.0 mg/kg/injection, schedule: Q01DX005 (ip), vehicle: water) 104 % of control.

`C/C=C1\OC(n2cnc3c(N)ncnc32)C(O)C1O` (stereo unspecified): the T/C was 101 % of control (dose: 12.5 mg/kg/injection, schedule: Q01DX005 (ip), vehicle: distilled water + Tween-80); 109 % of control (dose: 25.0 mg/kg/injection, schedule: Q01DX005 (ip), vehicle: distilled water + Tween-80); 113 % of control (dose: 50.0 mg/kg/injection, schedule: Q01DX005 (ip), vehicle: distilled water + Tween-80); 112 % of control (dose: 50.0 mg/kg/injection, schedule: Q01DX009 (ip), vehicle: distilled water + Tween-80); 119 % of control (dose: 100.0 mg/kg/injection, schedule: Q01DX005 (ip), vehicle: distilled water + Tween-80); 124 % of control (dose: 100.0 mg/kg/injection, schedule: Q01DX009 (ip), vehicle: distilled water + Tween-80). For the same compound, under “dose: 200.0 mg/kg/injection, schedule: Q01DX009 (ip), vehicle: distilled water + Tween-80”, the T/C was 157 % of control.

With `Cc1c(C)c(C(=O)O)c(C)c(C)c1C(=O)O`, the T/C (dose: 100.0 mg/kg/injection, schedule: Q04DX003 (ip), vehicle: saline) is 102 % of control; the T/C (dose: 200.0 mg/kg/injection, schedule: Q04DX003 (ip), vehicle: saline) is 100 % of control; the T/C (dose: 400.0 mg/kg/injection, schedule: Q04DX003 (ip), vehicle: saline) was 96 % of control.

Turning to `CN(C)c1nc(F)nc2c1ncn2C1OC(CO)C(O)C1O` (stereo unspecified), the T/C was 100 % of control (dose: 75.0 mg/kg/injection, schedule: Q01DX001 (ip), vehicle: other); 109 % of control (dose: 150.0 mg/kg/injection, schedule: Q01DX001 (ip), vehicle: other); 109 % of control (dose: 300.0 mg/kg/injection, schedule: Q01DX001 (ip), vehicle: other).

In the case of `CN(N=O)C(=O)NCC1CCC(CNC(=O)N(C)N=O)CC1` (stereo unspecified), the T/C runs as follows: (dose: 100.0 mg/kg/injection, schedule: Q01DX001 (ip), vehicle: carboxymethylcellulose (CMC)) 96 % of control; (dose: 200.0 mg/kg/injection, schedule: Q01DX001 (ip), vehicle: carboxymethylcellulose (CMC)) 88 % of control and 98 % of control; (dose: 300.0 mg/kg/injection, schedule: Q01DX001 (ip), vehicle: carboxymethylcellulose (CMC)) 98 % of control and 93 % of control; (dose: 400.0 mg/kg/injection, schedule: Q01DX001 (ip), vehicle: carboxymethylcellulose (CMC)) 101 % of control and 108 % of control; (dose: 500.0 mg/kg/injection, schedule: Q01DX001 (ip), vehicle: carboxymethylcellulose (CMC)) 106 % of control and 107 % of control; (dose: 600.0 mg/kg/injection, schedule: Q01DX001 (ip), vehicle: carboxymethylcellulose (CMC)) 104 % of control. Moreover, the T/C runs as follows: (dose: 800.0 mg/kg/injection, schedule: Q01DX001 (ip), vehicle: carboxymethylcellulose (CMC)) 111 % of control; (dose: 1000.0 mg/kg/injection, schedule: Q01DX001 (ip), vehicle: carboxymethylcellulose (CMC)) 112 % of control.

Regarding `CCCCCCCCCCCCCCCC(CCCCCC)CCCCCC`, the T/C is, setting by setting: (dose: 100.0 mg/kg/injection, schedule: Q01DX001 (ip), vehicle: saline sonified) 102 % of control; (dose: 200.0 mg/kg/injection, schedule: Q01DX001 (ip), vehicle: saline sonified) 98 % of control; (dose: 400.0 mg/kg/injection, schedule: Q01DX001 (ip), vehicle: saline sonified) 102 % of control.

As for `CCCCCCCCC(C(=O)c1ccccc1)C(O)(C(F)(F)F)C(F)(F)F` (stereo unspecified), the T/C under setting [5] was 102 % of control, the T/C under setting [7] is 111 % of control and the T/C under setting [9] was 102 % of control.

Consider `O=C1OC2CCC(Br)CC2C=C1C1CCC([N+](=O)[O-])CC1` (stereo unspecified), for which the T/C was 108 % of control (dose: 100.0 mg/kg/injection, schedule: Q04DX002 (ip), vehicle: saline with Tween-80); 100 % of control (dose: 200.0 mg/kg/injection, schedule: Q04DX002 (ip), vehicle: saline with Tween-80); 89 % of control (dose: 400.0 mg/kg/injection, schedule: Q04DX002 (ip), vehicle: saline with Tween-80).

As for `CC(C)/C=C\C=C\C(C)C`, the T/C is 96 % of control (dose: 50.0 mg/kg/injection, schedule: Q01DX009 (ip), vehicle: saline with Tween-80); 103 % of control under setting [4]; 96 % of control under setting [6].

Take `CN(C)C=Nc1cnc2ccccc2c1`: the T/C under setting [5] was 95 % of control, the T/C under setting [7] was 95 % of control and the T/C under setting [9] was 96 % of control.

For the compound `Cc1ccc(S(=O)(=O)OCC(OS(=O)(=O)c2ccc(C)cc2)C2OC3OC(C)(C)OC3C2OS(=O)(=O)c2ccc(C)cc2)cc1` (stereo unspecified), the T/C by setting is: under setting [4], 103 % of control; under setting [5], 96 % of control; under setting [6], 103 % of control; under setting [7], 87 % of control; under setting [8], 89 % of control; under setting [9], 90 % of control.

Take `Cc1ccc(S(=O)(=O)SCC(=O)c2ccc([N+](=O)[O-])cc2)cc1`: the T/C runs as follows: under setting [1], 94 % of control; (dose: 100.0 mg/kg/injection, schedule: Q01DX009 (ip), vehicle: saline sonified) 96 % of control; under setting [2], 92 % of control; (dose: 200.0 mg/kg/injection, schedule: Q01DX009 (ip), vehicle: saline sonified) 97 % of control; under setting [3], 92 % of control.
